According to PubChem BioAssay AID1996:
Converted amounts (≈) assume the structure as drawn.

Conditions: buffer; pH 7.4; 200.0 µM
In the case of Cl.NS(=O)(=O)c1ccc(CCNCc2cccnc2)cc1, the solubility kinetic is reported as 40.5 µg/mL.
Cc1ccc2c(c1)C(c1ccccc1)=NCC(=O)N2 gave a solubility kinetic of over 37.5 µg/mL.
For COc1ccc(CN=C(C#N)C2=C(O)c3ccccc3C2=O)cc1, the solubility kinetic was 0.8 µg/mL (≈ 2.51 µM).
Work on CN(CC(=O)Nc1ccc(Cl)cc1)C(=O)CCc1ccccc1 yielded a solubility kinetic of 5.2 µg/mL (≈ 15.7 µM).
For CCOc1ccc(N2C(=O)CC(SCC(=O)O)C2=O)cc1 (configuration not stated), the solubility kinetic was over 46.4 µg/mL.
Compound CSc1nc2ccccc2c(=O)n1C1CCCCC1 has a solubility kinetic of 1 µg/mL (≈ 3.64 µM).
For COc1ccc2ccccc2c1CNC(C)c1ccccc1.O=C(O)C(=O)O (configuration not stated), the solubility kinetic was over 57.2 µg/mL.
In the case of O=C(NC1CCCCC1)N1CCN(c2ccc(Cl)cc2)CC1, the solubility kinetic is reported as 19.6 µg/mL (≈ 60.9 µM).
Work on NCCNC(=O)c1c(NC(=O)c2ccccc2)sc2c1CCCC2 yielded a solubility kinetic of 41.1 µg/mL (≈ 120 µM).
In the case of C=CCc1cc(Cl)ccc1OCCn1ccnc1.O=C(O)C(=O)O, the solubility kinetic is reported as 39.5 µg/mL.
In the case of COc1ccc(NC(=O)CSc2nncn2C)cc1, the solubility kinetic is reported as over 41.7 µg/mL.
For O=S(=O)(Nc1cccc2ccccc12)c1ccccc1, the solubility kinetic was 8.6 µg/mL (≈ 30.4 µM).
Work on COC(=O)C1=Nc2ccccc2/C1=C\c1c(O)n(C)c(=O)n(C)c1=O yielded a solubility kinetic of over 51.2 µg/mL.
Cc1ccc2nc(NS(=O)(=O)c3cn(C)nc3C)sc2c1 showed a solubility kinetic of over 48.4 µg/mL.
CC(=O)Nc1ccc2sc(C)nc2c1 showed a solubility kinetic of over 30.9 µg/mL.
CC(C)C(NC(=O)c1ccc(F)cc1)C(=O)N1CCN(c2ccccn2)CC1 (configuration not stated) showed a solubility kinetic of 25.8 µg/mL (≈ 67.1 µM).
With O=C(COC(=O)c1ccccn1)NC(=O)c1ccccc1 the solubility kinetic was 35 µg/mL (≈ 123 µM).
For CCc1cccc(NC(=O)C2CCCN2C(=O)Nc2ccc(C)cc2)c1 (configuration not stated), the solubility kinetic was 1.2 µg/mL (≈ 3.41 µM).
COc1ccccc1-n1c(-c2ccc(C)cc2)nc2ccccc2c1=O showed a solubility kinetic of 3.3 µg/mL (≈ 9.64 µM).
Compound COc1cccc(/C=C/C(=O)OCC(=O)N2CCCC2)c1OC has a solubility kinetic of over 47.9 µg/mL.
CC1(C)N([O-])C2=C(CCCC2)[N+]1=O gave a solubility kinetic of over 27.3 µg/mL.
In the case of CCn1cc(CCC(=O)NCCc2ccccc2)c2ccccc21, the solubility kinetic is reported as 32.8 µg/mL (≈ 102 µM).
In the case of COCCCNC(=S)Nc1cccc2ncccc12, the solubility kinetic is reported as 40.9 µg/mL (≈ 149 µM).
O=c1[nH]c2ccc(NS(=O)(=O)c3ccc(F)c(Cl)c3)cc2[nH]1 gave a solubility kinetic of 7.5 µg/mL (≈ 21.9 µM).
CCOc1ccccc1NC(=S)NC(=O)CCc1ccccc1 gave a solubility kinetic of under 0.4 µg/mL.
Work on CC1CCCCC1NCC(=O)Nc1ccccc1C(=O)Nc1ccccc1 (configuration not stated) yielded a solubility kinetic of 4 µg/mL (≈ 10.9 µM).
O=C(Nc1ccc(F)cc1)c1cc2ccccc2o1 showed a solubility kinetic of 1.9 µg/mL (≈ 7.44 µM).
For CC(C)c1nc(C#N)c(NN)o1, the solubility kinetic was over 24.9 µg/mL.
With COc1cc(NC(=O)Nc2cccc3cccnc23)cc(OC)c1OC the solubility kinetic was 0.4 µg/mL (≈ 1.13 µM).
Work on C=CCN(c1ccccc1OC)S(=O)(=O)c1cccc(C(=O)OC2CCOC2=O)c1 (configuration not stated) yielded a solubility kinetic of 56.7 µg/mL (≈ 131 µM).
In the case of CCOC(=O)Cn1c(=O)oc2ccc(C)cc21, the solubility kinetic is reported as over 35.3 µg/mL.
For O=C(O)c1cc(-c2ccc(Cl)s2)nc2ccccc12, the solubility kinetic was 41.5 µg/mL (≈ 143 µM).
Work on Cc1cccc(NC(=O)c2cccnc2)c1C yielded a solubility kinetic of 24.1 µg/mL (≈ 107 µM).
Work on O=C1CCCN1CCCNS(=O)(=O)c1ccccc1 yielded a solubility kinetic of over 42.4 µg/mL.
CC(=O)Oc1ccccc1C(=O)N(C1CCCCC1)C1CCCCC1 gave a solubility kinetic of 44.5 µg/mL (≈ 130 µM).
In the case of CCCCn1c(NCc2ccncc2)nc2ccccc21, the solubility kinetic is reported as 39.4 µg/mL (≈ 141 µM).
N#CC1=C(N)Oc2cc(O)c(Cl)cc2C1c1cccnc1 (configuration not stated) showed a solubility kinetic of 11.2 µg/mL (≈ 37.4 µM).
CCC1CCCCN1C(=O)CCS(=O)(=O)c1ccccc1 (configuration not stated) showed a solubility kinetic of over 46.4 µg/mL.
With Cc1ccc(OC(C)C(=O)Nc2ccncc2)cc1C (configuration not stated) the solubility kinetic was 34 µg/mL (≈ 126 µM).
In the case of COc1ccccc1Nc1nc(NCCC(C)C)nc(N)c1[N+](=O)[O-], the solubility kinetic is reported as under 0.1 µg/mL.
Compound N#CCC(=O)Nc1ccc(C(F)(F)F)cc1N1CCOCC1 has a solubility kinetic of 38.3 µg/mL (≈ 122 µM).
With Cc1ccc(C(=O)CSc2nc(N)cc(=O)[nH]2)cc1C the solubility kinetic was 12.8 µg/mL (≈ 44.2 µM).
For CCOC(=O)CN1CCS(=O)(=O)CC1, the solubility kinetic was over 33.2 µg/mL.
CC(C)c1ccc(OCc2ccc(C(=O)N3CCCC3)o2)cc1 gave a solubility kinetic of 26.7 µg/mL (≈ 85.2 µM).
Compound OC(CCNCCc1c[nH]c2ccccc12)C(F)(F)Cl (configuration not stated) has a solubility kinetic of over 45.4 µg/mL.
Cc1cc(C)c(S(=O)(=O)Nc2ncccc2C)c(C)c1 showed a solubility kinetic of 2.1 µg/mL (≈ 7.23 µM).
Compound NS(=O)(=O)c1ccc(CNC(=O)Cc2ccccc2[N+](=O)[O-])cc1 has a solubility kinetic of 50.1 µg/mL (≈ 143 µM).
Compound Cn1c(-c2ccc(Cl)nc2)nc2cc(Cl)ccc21 has a solubility kinetic of 6.6 µg/mL (≈ 23.7 µM).
Work on CCCCNC(=O)N1CCCN(c2ccc(C#N)cn2)CC1 yielded a solubility kinetic of over 45.2 µg/mL.
In the case of O=C(O)CN1C(=O)NC2(CCOc3ccccc32)C1=O (configuration not stated), the solubility kinetic is reported as over 41.4 µg/mL.
With Cn1c(-c2ccc(F)cc2)cnc1NCc1ccc(F)cc1F the solubility kinetic was 34.9 µg/mL (≈ 110 µM).
For CC1(C)CC(NCc2ccccc2)CCO1.Cl (configuration not stated), the solubility kinetic was 34.2 µg/mL.
CCN(Cc1ccccc1)C(=O)CSc1nncn1C gave a solubility kinetic of over 43.6 µg/mL.
Compound CCCCC(CC)C(=O)N1CCN(C(=O)c2ccco2)CC1 (configuration not stated) has a solubility kinetic of 45.4 µg/mL (≈ 148 µM).
Compound Cc1cccc2sc(NS(=O)(=O)c3ccccc3)nc12 has a solubility kinetic of over 45.7 µg/mL.
For CCOC(=O)C1CCN(C(=O)Nc2cccc(OC)c2)CC1, the solubility kinetic was over 46 µg/mL.
With Cc1noc2ncnc(N3CCCC3)c12 the solubility kinetic was over 30.6 µg/mL.
With Cc1cnc(C(=O)OCC(=O)c2ccc(F)c(F)c2)cn1 the solubility kinetic was over 43.8 µg/mL.
CC1(C)CC2CC(C)(CN2S(=O)(=O)c2ccccc2[N+](=O)[O-])C1 (configuration not stated) gave a solubility kinetic of 2.4 µg/mL (≈ 7.09 µM).
Work on O=S(=O)(Cc1cc(-c2ccccc2)no1)c1ccccc1 yielded a solubility kinetic of 3.4 µg/mL (≈ 11.4 µM).
For NC1=NC(=O)/C(=C/c2ccc(Br)cc2)S1, the solubility kinetic was 1.8 µg/mL (≈ 6.36 µM).
Work on CCOc1nc(C)cc(COC)c1C(N)=O yielded a solubility kinetic of over 33.6 µg/mL.
